Assay results reported in patent US8076449B2, “Therapeutic agents of colivelin for neurodegenerative diseases” (Tomohiro Chiba, priority 2004, dated 2011).
Entries after “also recorded” stand apart in the source; their conditions may differ. Ends that are not written are not given here.

Tests used:
[1] = system: F11 cells transformed with M146L-PS1; assay: Neuronal cell death induced by M146L-PS1 gene, Trypan blue exclusion assay; type: cell-based, rat/mouse hybrid; conditions: M146L-PS1, 72 hours after transformation
Protocol: (§1) F11 cell, the hybrid cell of rat embryonic day 13 (E13) primary cultured neuronal cell with mouse neuroblastoma NTG18 cell, was cultured in Ham's F-12 medium (Life Technologies, Gaithersburg, Md.) containing 18% FBS (Hyclone, Logan, Utah) and antibiotics as previously reported (Platika D, et al., 1985, Proc Natl Acad Sci USA 82: 3499-3503; Yamatsuji T, et al., 1996, Science 272: 1349-1352; Huang P, et al., 2000, Mol Hum Reprod 6: 1069-1078; and Niikura T, et al., 2001, J Neuroscience, 21: 1902-1910).
(§2) (i) Test of Neuronal Cell Death Induced by M146L-PS1 or G93R-SOD1 Gene
The F11 cells (7×10^4 cells/well, 6-well plate, 12- to 16-hour culture in Ham's F-12 (18% FBS) medium) were transformed with M146L-PS1 or G93R-SOD1 gene by lipofection (0.5 μg of cDNA; 1 μl of LipofectAMINE; 2 μl of PLUS Reagent) under serum-free conditions for 3 hours and cultured for 2 hours in Ham's F-12 (18% FBS) medium. The medium was replaced by Ham's F-12 (10% FBS) in the presence or absence of varying concentrations (100 aM, 1 fM, 10 fM, 100 fM, 1 pM, 10 pM, 100 pM, 1 nM, 10 nM, or 100 nM) of colivelin or AGA-CBR-HNG17 peptides. After 72 hours of the transformation, cell mortality was measured by Trypan blue exclusion assay as previously reported (Hashimoto Y, et al., 2001, J Neurosci 21: 9235-9245; and Hashimoto Y, et al, 2001, Proc Natl Acad Sci USA 98: 6336-6341). […]

[2] = system: F11 cells transformed with G93R-SOD1; assay: Neuronal cell death induced by G93R-SOD1 gene, Trypan blue exclusion assay; type: cell-based, rat/mouse hybrid
Protocol: as §1, §2
The F11 cells (7×10^4 cells/well, 6-well plate, 12- to 16-hour culture in Ham's F-12 (18% FBS) medium) were transformed with M146L-PS1 or G93R-SOD1 gene by lipofection (0.5 μg of cDNA; 1 μl of LipofectAMINE; 2 μl of PLUS Reagent) under serum-free conditions for 3 hours and cultured for 2 hours in Ham's F-12 (18% FBS) medium. […] After 72 hours of the transformation, cell mortality was measured by Trypan blue exclusion assay as previously reported (Hashimoto Y, et al., 2001, J Neurosci 21: 9235-9245; and Hashimoto Y, et al, 2001, Proc Natl Acad Sci USA 98: 6336-6341).
ADNF has already been reported to protect neurons from toxicity caused by SOD1 mutations. […] After 72 hours of the transformation, cell mortality was measured by Trypan blue exclusion assay (FIG. 3).

G93A-SOD1 Tg mice = assay: Motor performance (rotarod), onset and survival test with ALS model animal, icv administration (Example 3); type: in vivo, mouse
From the text: Transgenic (Tg) mice (hereinafter, referred to as “G93A-SOD1 Tg mice”) expressing human FALS-associated SOD1 mutant gene with a mutation (G93A) from Gly to Ala at 93 position are the best-established mouse model of ALS (Gurney M E, et al., 1994, Science 264: 1772-1775; and Gurney M E, et al., 1997, J Neurol Sci 152 Suppl 1: S67-73). The G93A-SOD1 Tg mice manifest symptoms quite similar to human ALS after normal birth and rapidly result in death in all cases. The G93A-SOD1 Tg mice, which have the onset of the regression of motor neurons similar clinically and pathologically to that in human ALS, have been known so far to be the most excellent model of ALS throughout the world and employed for identifying effective candidate drugs for ALS patients.
The model mice were used to confirm the in vivo effect of colivelin against neurotoxicity caused by G93A-SOD1.
The G93A-SOD1 Tg mice were purchased from Jackson Laboratories (Bar Harbor, Me.). The G93A-SOD1 Tg mice were kept as hemizygote mice by the mating thereof with C57BL/6J mice (CLEA Japan, Inc). The mice were raised in an SPF room (specific pathogen-free animal facility; 23±1° C., 55±5% humidity) in the 12-hour light/12-hour dark cycle (7:00 AM-7:00 PM). The mice were freely fed with gamma ray-irradiated Picolab Rodent Diet 20 (PMI Feeds Inc. St. Louis, Mo.) and sodium hyposulfite (5 ppm)-containing aseptic deionized distilled water.
The G93A-SOD1 Tg mice at 10 weeks of age were put under anesthesia by the intraperitoneal injection of 10% Nembutal (sodium pentobarbital; 60 mg/kg). A hole was made on the cranial bone with a drill on a sterotaxic surgery apparatus to aseptically transplant the C315GS-4 cannula system for mouse (Plastics One Inc., Roanoke, Va.) to the mouse left lateral ventricle. The cannula was fixed with a surgical adhesive and dental cement.
The mice at 80 days of age were divided at random to a saline (control)-administered group (n=7), 100 fmol colivelin-administered group (n=6), 10 pmol colivelin-administered group (n=7), 1 nmol colivelin-administered group (n=7), and 30 nmol ADNF-administered group (n=5). Until the end of the experiment, the control group received the intracerebroventricular (icv) injection of 3 μl of saline each day, while the colivelin-administered groups and the ADNF-administered group received the icy injection of 3 μl of colivelin (100 f mol, 10 pmol, or 1 nmol) and 3 μI of 30 nmol ADNF, respectively. In this context, colivelin and ADNF were separately dissolved in a saline for the injection. The injection was performed with the cannula in C315IS-4 connected to Hamilton syringe through a cannula tube (C232, PESO/Thin wall, Plastic One).
The motor function (motor performance) was evaluated weekly with a rotarod (CLEA Japan Inc). After the cannulation, the mice were acclimated to the rotarod for 2 days. The mice were placed onto a rotating rod at a speed of 5 rpm, and the time for which each mouse could remain on the rod was automatically detected. The test was conducted according to the protocol wherein the test was completed as a score of 7 minutes if the mouse remained on the rod for 7 minutes (Li M, et al., 2000, Science 288: 335-339; and Kaspar B K, et al., 2003, Science 301: 839-842). Disease onset was defined as the first day when the mouse could not remain on the rotarod for 7 minutes.
Death was defined when the mouse was unable to right itself within 30 seconds after being placed on its back (Li M, et al., op. cit).

[3] = system: F11 cells transformed with M146L-PS1; conditions: as already reported; cited from earlier work
[4] = 100 fmol colivelin icv each day

Sequence: PAGASRLLLLTGEIDLP [AGA-C8R-HNG17, Pro-Ala-Gly-Ala-Ser-Arg-Leu-Leu-Leu-Leu-Thr-Gly-Glu-Ile-Asp-Leu-Pro, reference compound]
- concentration of complete protection against cell death induced by mutant PS1 [1]: 10 pM
- neuroprotective effect on cell death induced by SOD1 mutant ([2]; varying concentrations 100 aM to 100 nM): could not protect; also recorded: not observed

Sequence: SALLRSIPA [ADNF, reference compound]
- mean survival days (G93A-SOD1 Tg mice; 30 nmol ADNF icv each day): 145.0 days
- time up to which motor function was maintained (rotarod) (G93A-SOD1 Tg mice; 30 nmol ADNF icv each day): approximately 130 days
- suppression of cell death caused by M146L-PS1 [3]: does not suppress

Sequence: SALLRSIPAPAGASRLLLLTGEIDLP [colivelin]
- mean survival days (G93A-SOD1 Tg mice; 10 pmol colivelin icv each day): 159.4 days
- prolongation of life span (G93A-SOD1 Tg mice; 10 pmol colivelin icv each day, versus control): 11.7%
- delay of the disease onset (G93A-SOD1 Tg mice; 1 nmol colivelin icv each day): approximately 17 day
- mean survival days (G93A-SOD1 Tg mice; 1 nmol colivelin icv each day): 156.7 days
- protective action on motor function (rotarod) (G93A-SOD1 Tg mice; 1 nmol colivelin icv each day): most potent protective action
- mean survival days (G93A-SOD1 Tg mice; [4]): 153.3 days
- time of deterioration of motor function (rotarod) (G93A-SOD1 Tg mice; [4]): approximately 120 days
- recovery of motor function (G93A-SOD1 Tg mice; experiments using ALS model mice (summary statement)): approximately 70%
- concentration completely suppressing cell death induced by mutant PS1 [1]: 100 fM
- concentration completely suppressing cell death induced by G93R-SOD1 ([2]; 72 hours after transformation): 1 pM
